Reference: patent US20120128665A1, “PRESELECTION OF SUBJECTS FOR THERAPEUTIC TREATMENT BASED ON HYPOXIC STATUS” (SYNTA PHARMACEUTICALS CORP., priority 2010, published 2012)
Read-outs that look alike come from different tables or passages of the source.

Columns and labels:
mTORC1 = mTORC1 (Homo sapiens, UniProt P42345); conditions: immune-kinase assays; cited from earlier work
[1] = test system: phosphorylated RPS6 (ribosomal protein S6); conditions: TSC1-deficient cells; cited from earlier work
mTORC2 = mTORC2 (Homo sapiens, UniProt P42345); conditions: immune-kinase assays; cited from earlier work
[2] = test system: HCT116 tumors vs 786O tumors; assay: response of hypoxic vs non-hypoxic tumors; type: in vivo, nude mice; conditions: doses as in the 3rd table
[3] = test system: metastatic colorectal cancer (mCRC); conditions: P <0.001, cited from earlier work
[4] = test system: mCRC pretreated with 5-FU/irinotecan; conditions: cited from earlier work
[5] = test system: metastatic colorectal cancer (mCRC); conditions: cited from earlier work
pancreatic cancer = conditions: PTK787 and gemcitabine, cited from earlier work
[6] = test system: HCT116 human colon carcinoma xenograft; assay: HCT116 xenograft model (hypoxic tumor); type: in vivo, nude mice
Experimental: (§1) Human tumor cell lines HCT116 (ATCC #CRL-247; Schroy PC, et al. Cancer 76:201-209, 1995) and 786-O (ATCC #CRL-1932; Williams RD, et al. In Vitro 12:623-627, 1976), were obtained from the American Type Culture Collection (Manassus, Va., USA) were cultured using routine methods until a sufficient number of cells were obtained for implantation. Studies were conducted on animals between 7 and 12 weeks of age at implantation. To implant HCT116 tumor cells into nude mice, the cells were trypsinized, washed in PBS and resuspended at a concentration of 75×10^6 cells/ml in McCoy's modified medium with 50% of BD Matrigel® Basement Membrane Matrix (BD Biosciences®, Bedford, Mass., USA). To implant 786-O tumor cells into nude mice, the cells were trypsinized as above, washed in PBS and resuspended at a concentration of 75×10^6 cells/ml in RPMI 1640 medium with 50% of BD Matrigel® Basement Membrane Matrix. Using a 27 gauge needle and 1 cc syringe, 0.1 ml of the cell suspension was injected into the corpus adiposum of nude mice. The corpus adiposum is a fat body located in the ventral abdominal vicera in the right quadrant of the abdomen at the juncture of the os coxae (pelvic bone) and the os femoris (femur). The location permits palpation and measurement of the tumors using external calipers. Tumor volumes (V) were calculated by caliper measurement of the width (W), length (L) and thickness (T) of tumors using the following formula: V=0.5236×(L×W×T). Animals were randomized into treatment groups so that the average tumor volumes of each group were similar at the start of dosing.
(§2) A tumor model in which the tumors have relatively high and low levels of LDH5, indicating high and low levels of hypoxia, using human tumor cell lines HCT116 and 786-O was established as set forth in the previous example.
(§3) As above, HCT116 and 786-O cells were cultured and implanted into nude mice using the methods in the previous example. Tumor growth was measured using calipers. Prior to treatment with the various agents, tumors were permitted to develop in vivo until they reached approximately 150 mm^3 in volume, which typically required 2-3 weeks following implantation. Animals were randomized into treatment groups so that the average tumor volumes of each group were similar at the start of dosing.
(§4) Tumor volume was monitored throughout the course of the study, until up to about 40 days from the date of tumor implantation. The exact number of days of the study depended on a number of factors including, for example, the number of days from implantation for the tumors to reach the desired volume.

[7] = test system: 786-O human renal carcinoma xenograft; assay: 786-O xenograft model (non-hypoxic tumor); type: in vivo, nude mice
Experimental: as §1, §2, §3, §4

[8] = test system: renal cell carcinoma cell lines; conditions: cited from earlier work
RCC and poor prognosis = conditions: cited from earlier work
[9] = test system: advanced RCC and poor prognosis; conditions: cited from earlier work; for progression-free survival / median overall survival: single agents; for progression-free survival: P=0.0001; for median overall survival: P=0.0078
[10] = test system: locally advanced, unresectable or metastatic pancreatic cancer; conditions: 100 mg cohort, erlotinib arm = plus gemcitabine, comparator gemcitabine alone, cited from earlier work; for progression free survival: p=0.006; for survival: p=0.028
renal cancer = conditions: bevacizumab arm = with interferon-alpha; comparator interferon-alpha alone; cited from earlier work
[11] = test system: locally advanced or metastatic NSCLC; conditions: maintenance, cited from earlier work
JAK2V617F = JAK2V617F (Homo sapiens, UniProt O60674, V617F); conditions: cited from earlier work
Chain of JAK2V617F (O60674 whole entry V617F): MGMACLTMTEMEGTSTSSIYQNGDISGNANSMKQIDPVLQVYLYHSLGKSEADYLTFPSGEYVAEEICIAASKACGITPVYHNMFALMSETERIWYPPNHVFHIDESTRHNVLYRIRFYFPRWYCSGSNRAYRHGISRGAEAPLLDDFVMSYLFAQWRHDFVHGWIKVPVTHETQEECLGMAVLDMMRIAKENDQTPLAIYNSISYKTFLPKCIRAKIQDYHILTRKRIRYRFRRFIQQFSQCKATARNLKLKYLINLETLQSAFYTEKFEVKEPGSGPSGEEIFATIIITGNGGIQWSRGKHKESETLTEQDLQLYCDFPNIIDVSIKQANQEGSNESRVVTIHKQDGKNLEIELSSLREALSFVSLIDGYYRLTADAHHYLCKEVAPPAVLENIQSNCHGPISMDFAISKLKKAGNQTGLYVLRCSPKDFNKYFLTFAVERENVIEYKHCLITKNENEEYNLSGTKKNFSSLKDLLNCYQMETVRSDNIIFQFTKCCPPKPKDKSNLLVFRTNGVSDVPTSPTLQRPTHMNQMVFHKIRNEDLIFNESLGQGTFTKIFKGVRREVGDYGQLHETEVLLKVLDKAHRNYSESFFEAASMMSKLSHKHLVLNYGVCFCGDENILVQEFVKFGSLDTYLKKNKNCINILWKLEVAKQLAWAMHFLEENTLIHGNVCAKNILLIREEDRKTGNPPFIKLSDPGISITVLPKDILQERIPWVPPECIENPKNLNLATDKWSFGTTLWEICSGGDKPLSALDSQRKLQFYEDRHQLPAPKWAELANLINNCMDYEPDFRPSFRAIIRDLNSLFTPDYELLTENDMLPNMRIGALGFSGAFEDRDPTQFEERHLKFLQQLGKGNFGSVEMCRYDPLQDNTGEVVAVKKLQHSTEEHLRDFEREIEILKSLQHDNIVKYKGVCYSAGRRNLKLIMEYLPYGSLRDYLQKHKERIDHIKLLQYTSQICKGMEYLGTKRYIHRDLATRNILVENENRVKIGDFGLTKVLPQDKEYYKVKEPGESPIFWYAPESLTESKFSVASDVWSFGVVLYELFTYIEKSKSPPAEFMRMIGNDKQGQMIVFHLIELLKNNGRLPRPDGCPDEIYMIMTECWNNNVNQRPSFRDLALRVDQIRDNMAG

[12] = test system: locally advanced or metastatic NSCLC after failure of at least one chemotherapy regimen; conditions: erlotinib 150 mg orally once daily; cited from earlier work
PDGFR-β = PDGFR-β (Homo sapiens, UniProt P09619); conditions: in vitro; cited from earlier work
Chain of PDGFR-β (P09619 33-1106, species assumed): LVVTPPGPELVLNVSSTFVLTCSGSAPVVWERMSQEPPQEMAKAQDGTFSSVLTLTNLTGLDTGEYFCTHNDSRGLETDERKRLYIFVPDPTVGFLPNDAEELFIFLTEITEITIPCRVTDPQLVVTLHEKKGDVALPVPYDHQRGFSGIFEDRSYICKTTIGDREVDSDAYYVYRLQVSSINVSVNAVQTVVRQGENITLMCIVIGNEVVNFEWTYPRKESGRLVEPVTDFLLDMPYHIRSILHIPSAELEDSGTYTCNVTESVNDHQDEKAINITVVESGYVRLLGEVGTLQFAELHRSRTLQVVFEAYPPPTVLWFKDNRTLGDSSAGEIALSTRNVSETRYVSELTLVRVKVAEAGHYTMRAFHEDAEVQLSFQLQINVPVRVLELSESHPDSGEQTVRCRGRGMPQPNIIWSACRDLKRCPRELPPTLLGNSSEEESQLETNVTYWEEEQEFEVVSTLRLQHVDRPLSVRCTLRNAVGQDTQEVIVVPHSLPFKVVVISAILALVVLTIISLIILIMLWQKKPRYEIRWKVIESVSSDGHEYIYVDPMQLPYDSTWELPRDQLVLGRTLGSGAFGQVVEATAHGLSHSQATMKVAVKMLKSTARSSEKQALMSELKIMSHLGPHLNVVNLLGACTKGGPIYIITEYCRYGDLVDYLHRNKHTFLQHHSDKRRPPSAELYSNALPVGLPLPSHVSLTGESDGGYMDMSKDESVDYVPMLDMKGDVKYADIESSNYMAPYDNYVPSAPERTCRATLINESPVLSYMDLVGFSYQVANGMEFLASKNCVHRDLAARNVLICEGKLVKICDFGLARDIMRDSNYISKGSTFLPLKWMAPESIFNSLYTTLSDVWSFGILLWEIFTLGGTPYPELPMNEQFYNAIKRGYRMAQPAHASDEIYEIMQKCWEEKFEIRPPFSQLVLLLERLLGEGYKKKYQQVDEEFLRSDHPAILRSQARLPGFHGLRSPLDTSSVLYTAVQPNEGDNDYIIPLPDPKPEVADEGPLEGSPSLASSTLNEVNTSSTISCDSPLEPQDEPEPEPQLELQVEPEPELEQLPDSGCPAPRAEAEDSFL

human tumor xenografts = conditions: mice; cited from earlier work
angiogenesis = conditions: mouse model; cited from earlier work
VEGFR-2 [13] = target: T1, VEGFR-2 (Mus musculus, UniProt P35918); conditions: in vivo, cited from earlier work
T1 construct: from tissue; host or cells: mouse lungs (in vivo)
T1 sequence (P35918 20-1345): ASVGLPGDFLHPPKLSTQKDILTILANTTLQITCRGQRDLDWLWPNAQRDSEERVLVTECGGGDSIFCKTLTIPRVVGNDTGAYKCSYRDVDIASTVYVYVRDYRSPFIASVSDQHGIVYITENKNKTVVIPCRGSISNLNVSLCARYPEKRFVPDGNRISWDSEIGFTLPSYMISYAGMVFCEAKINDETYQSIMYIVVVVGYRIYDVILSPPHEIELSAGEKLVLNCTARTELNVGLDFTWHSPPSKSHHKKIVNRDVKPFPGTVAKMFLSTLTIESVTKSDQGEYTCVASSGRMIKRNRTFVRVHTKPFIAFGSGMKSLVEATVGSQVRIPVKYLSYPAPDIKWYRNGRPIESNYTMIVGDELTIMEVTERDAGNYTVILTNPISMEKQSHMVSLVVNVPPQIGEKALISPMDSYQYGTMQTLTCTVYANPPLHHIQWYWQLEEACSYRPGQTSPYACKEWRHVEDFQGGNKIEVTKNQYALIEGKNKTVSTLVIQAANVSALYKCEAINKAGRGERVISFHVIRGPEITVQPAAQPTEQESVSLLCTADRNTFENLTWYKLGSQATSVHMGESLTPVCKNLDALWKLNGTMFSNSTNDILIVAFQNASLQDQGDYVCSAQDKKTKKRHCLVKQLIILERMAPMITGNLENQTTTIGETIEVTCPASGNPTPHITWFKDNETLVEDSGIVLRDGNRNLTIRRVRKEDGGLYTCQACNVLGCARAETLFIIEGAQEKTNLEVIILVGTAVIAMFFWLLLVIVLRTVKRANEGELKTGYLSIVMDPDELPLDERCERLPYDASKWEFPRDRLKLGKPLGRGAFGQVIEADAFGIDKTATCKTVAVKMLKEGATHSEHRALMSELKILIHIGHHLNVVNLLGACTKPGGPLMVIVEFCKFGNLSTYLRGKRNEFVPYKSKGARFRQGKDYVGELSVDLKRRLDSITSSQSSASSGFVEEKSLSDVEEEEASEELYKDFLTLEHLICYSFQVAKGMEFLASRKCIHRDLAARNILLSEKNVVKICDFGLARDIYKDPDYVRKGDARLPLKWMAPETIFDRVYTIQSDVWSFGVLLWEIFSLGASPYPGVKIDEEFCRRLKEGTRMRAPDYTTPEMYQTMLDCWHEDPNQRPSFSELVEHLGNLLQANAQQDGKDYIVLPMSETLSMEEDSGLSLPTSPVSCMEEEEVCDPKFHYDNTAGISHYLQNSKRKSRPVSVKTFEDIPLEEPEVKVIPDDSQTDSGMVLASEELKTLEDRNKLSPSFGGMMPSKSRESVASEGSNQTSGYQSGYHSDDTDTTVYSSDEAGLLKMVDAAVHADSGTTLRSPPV

VEGFR-2 [14] = target: VEGFR-2 (Homo sapiens, UniProt P35968); conditions: in vitro; cited from earlier work
Chain of VEGFR-2 (Homo sapiens, UniProt P35968) (P35968 20-1356, species assumed): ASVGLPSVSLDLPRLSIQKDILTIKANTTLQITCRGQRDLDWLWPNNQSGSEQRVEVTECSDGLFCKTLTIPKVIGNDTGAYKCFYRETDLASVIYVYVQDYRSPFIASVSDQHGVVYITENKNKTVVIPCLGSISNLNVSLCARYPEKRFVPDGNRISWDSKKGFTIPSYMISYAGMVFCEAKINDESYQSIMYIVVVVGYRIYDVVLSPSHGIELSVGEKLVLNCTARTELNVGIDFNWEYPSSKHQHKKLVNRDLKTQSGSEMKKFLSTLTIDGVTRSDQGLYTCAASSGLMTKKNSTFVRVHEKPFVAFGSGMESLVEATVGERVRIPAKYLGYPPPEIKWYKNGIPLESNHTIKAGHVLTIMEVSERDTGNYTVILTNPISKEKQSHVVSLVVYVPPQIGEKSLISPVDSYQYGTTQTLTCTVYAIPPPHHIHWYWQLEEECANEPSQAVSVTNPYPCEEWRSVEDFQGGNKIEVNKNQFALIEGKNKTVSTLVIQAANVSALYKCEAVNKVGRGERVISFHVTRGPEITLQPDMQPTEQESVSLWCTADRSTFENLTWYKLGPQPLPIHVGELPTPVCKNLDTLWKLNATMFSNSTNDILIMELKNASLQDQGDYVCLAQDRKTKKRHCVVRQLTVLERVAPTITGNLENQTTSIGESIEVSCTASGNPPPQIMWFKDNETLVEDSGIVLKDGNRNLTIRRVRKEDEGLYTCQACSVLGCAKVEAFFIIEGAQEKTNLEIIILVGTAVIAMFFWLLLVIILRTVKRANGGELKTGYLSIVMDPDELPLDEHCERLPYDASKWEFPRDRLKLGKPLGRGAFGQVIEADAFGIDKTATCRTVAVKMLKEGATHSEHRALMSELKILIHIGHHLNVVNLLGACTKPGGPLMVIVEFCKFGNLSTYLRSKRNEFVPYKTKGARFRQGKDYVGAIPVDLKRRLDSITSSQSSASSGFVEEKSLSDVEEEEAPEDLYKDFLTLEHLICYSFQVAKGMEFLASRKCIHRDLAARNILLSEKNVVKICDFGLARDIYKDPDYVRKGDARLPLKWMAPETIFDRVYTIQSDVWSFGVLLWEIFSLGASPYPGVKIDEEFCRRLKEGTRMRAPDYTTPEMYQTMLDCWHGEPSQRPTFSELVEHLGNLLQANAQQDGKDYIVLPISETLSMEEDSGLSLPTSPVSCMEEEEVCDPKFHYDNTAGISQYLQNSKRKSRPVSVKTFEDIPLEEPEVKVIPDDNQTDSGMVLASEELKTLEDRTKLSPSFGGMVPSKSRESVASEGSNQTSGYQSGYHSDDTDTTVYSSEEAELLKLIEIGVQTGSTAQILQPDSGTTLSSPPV

[15] = 140 subjects with elevated LDH, log-rank p<0.005
[16] = 264 subjects with normal LDH, log-rank p=0.514

Which mTORC1 kinase activity (mTORC1) does the source give for `Cn1c(=O)n(-c2ccc(C(C)(C)C#N)cc2)c2c3cc(-c4cnc5ccccc5c4)ccc3ncc21` [BEZ235] here?
Its mTORC1 kinase activity is “blocks”.

And the “levels of phosphorylated RPS6” value [1]?
The value was “significantly reduce”.

And the mTORC2 kinase activity (mTORC2)?
Its mTORC2 kinase activity is “blocks”.

What about the “effectiveness at slowing tumor growth in tumors with high levels of hypoxia (HCT116) compared with low levels (786O)” value (from here on “effectiveness … compared with low levels (786O)”) [2] of the same molecule?
The value was “not found to work better”.

For `Clc1ccc(Nc2nnc(Cc3ccncc3)c3ccccc23)cc1` [PTK787, N-(4-chlorophenyl)-4-(pyridin-4-ylmethyl)phthalazin-1-amine], which “PFS HR” value ([3]; All CONFIRM 1 & 2 High LDH Patients, N 566) is on record?
Its value is 0.62.

And the “PFS HR” value ([3]; All CONFIRM 1 & 2 Patients, N 2023)?
The value was 0.82.

And the “PFS HR” value ([4]; CONFIRM 2 - High LDH, N 250)?
The value was 0.63.

What about the “PFS HR” value ([4]; CONFIRM 2 - Low LDH, N 605, P 0.58) of the same molecule?
The value was 0.95.

What about the “PFS HR” value ([5]; CONFIRM 1 - High LDH, N 316, P 0.002) of the same molecule?
Its value is 0.61.

And the “PFS HR” value ([5]; CONFIRM 1 - Low LDH, N 852, P 0.43)?
The value was 0.93.

And the “effectiveness … compared with low levels (786O)” value [2]?
The value was “more effective”.

What about the “duration of stable disease” value (pancreatic cancer) of the same molecule?
The value was 2-6 months.

And the “patients with stable disease as the best response” value (pancreatic cancer; six of eleven patients)?
Its value is 55%.

What about the “tumor growth as compared to control” value ([6]; 50 mg/kg 5×/week p.o., p=0.1209) of the same molecule?
The value was “reduced the growth of the tumor”.

And the “tumor burden as compared to control” value ([7]; 50 mg/kg 5×/week p.o., p=0.7805)?
Its value is “no difference in tumor burden”.

And the “tumor burden as compared to control” value ([7]; Erlotinib section, FIG. 5B, 1×/week p.o., p=0.8548)?
Its value is “no difference in tumor burden”.

And the “tumor burden as compared to control” value ([7]; XL765 section, FIG. 4B, 30 mg/kg 5×/week p.o., p=0.7682)?
Its value is “no difference in tumor burden”.

Which “effectiveness … compared with low levels (786O)” value [2] does the source give for `CNC(=O)c1cc(Oc2ccc(NC(=O)Nc3ccc(Cl)c(C(F)(F)F)c3)cc2)ccn1` [sorafenib] here?
Its value is “not found to work better”.

Which results are given for `CO[C@H]1C[C@@H]2CC[C@@H](C)[C@@](O)(O2)C(=O)C(=O)N2CCCC[C@H]2C(=O)O[C@H]([C@H](C)C[C@@H]2CC[C@@H](OC(=O)C(C)(CO)CO)[C@H](OC)C2)CC(=O)[C@H](C)/C=C(\C)[C@@H](O)[C@@H](OC)C(=O)[C@H](C)C[C@H](C)/C=C/C=C/C=C/1C` [temsirolimus]?
effectiveness at slowing tumor growth in tumors with high levels of hypoxia (HCT116) compared with low levels (786O) [2]: not found to work better; activity of mTOR [8]: inhibited; levels of HIF-1 and HIF-2 alpha, and vascular endothelial growth factor [8]: reduced levels; survival (RCC and poor prognosis; [15]): 6.9 months; survival (RCC and poor prognosis; [16]): 11.7 months; overall survival compared with interferon-alpha alone ([9]; combination of temsirolimus and interferon-alpha): did not result in a significant increase in overall survival; increase in median overall survival compared to interferon-alpha ([9]; human, in vivo): 49%; progression-free survival [9]: 5.5 months; median overall survival [9]: 10.9 months

With `Nc1ccn([C@@H]2O[C@H](CO)[C@@H](O)C2(F)F)c(=O)n1` [gemcitabine] as the molecule, how does the progression free survival [10] read?
The progression free survival was 3.5 months.

What about the survival [10] of the same molecule?
Its survival is 6.0 months.

With panitumumab: Anti-EGFR as the molecule, how does the “effectiveness … compared with low levels (786O)” value [2] read?
Its value is “not found to work better”.

With `CCN(CC)CCNC(=O)c1c(C)[nH]c(/C=C2\C(=O)Nc3ccc(F)cc32)c1C` [sutent] as the molecule, how does the “effectiveness … compared with low levels (786O)” value [2] read?
Its value is “not found to work better”.

What does the source list for `COc1cc(Nc2nc3ccccc3nc2NS(=O)(=O)c2ccc(NC(=O)c3ccc(C)c(OC)c3)cc2)cc(OC)c1` [XL765]?
effectiveness at slowing tumor growth in tumors with high levels of hypoxia (HCT116) compared with low levels (786O) [2]: more effective; tumor growth rate as compared to control ([6]; 30 mg/kg 5×/week p.o., p=0.009): reduced the growth rate of the tumor

Which results are given for interferon-alpha?
patients with decreased tumor size (renal cancer): 12%; survival (RCC and poor prognosis; [15]): 4.2 months; survival (RCC and poor prognosis; [16]): 10.4 months; progression-free survival [9]: 3.1 months; median overall survival [9]: 7.3 months

Which progression free survival ([11]; erlotinib 150 mg orally once daily) does the source give for `C#Cc1cccc(Nc2ncnc3cc(OCCOC)c(OCCOC)cc23)c1` [erlotinib] here?
The progression free survival was 2.8 months.

What about the overall survival ([11]; difference not statistically significant) of the same molecule?
Its overall survival is 12 weeks.

What about the progression free survival [10] of the same molecule?
The progression free survival was 3.8 months.

What about the survival [10] of the same molecule?
The survival was 6.4 months.

What about the JAK2V617F activity (JAK2V617F) of the same molecule?
The JAK2V617F activity was “potent inhibitor”.

And the “effectiveness … compared with low levels (786O)” value [2]?
Its value is “more effective”.

And the progression free survival [12]?
Its progression free survival is 9.9 weeks.

What about the “rate of one year survival” value [12] of the same molecule?
The value was 31.2%.

And the “response duration, median” value [12]?
Its value is 34.3 weeks.

What about the survival [12] of the same molecule?
The survival was 6.7 months.

And the tumor response [12]?
Its tumor response is 8.9%.

What about the “tumor growth rate as compared to control” value ([6]; 1×/week p.o., doses 40, 25, 10 mg/kg in the 3rd table, p=0.0224) of the same molecule?
Its value is “reduced the growth rate of the tumor”.

With `Cc1ccc(Nc2nccc(N(C)c3ccc4c(C)n(C)nc4c3)n2)cc1S(N)(=O)=O.Cl` [pazopanib] as the molecule, how does the “ligand-induced autophosphorylation of PDGFR-β” value (PDGFR-β) read?
Its value is “inhibited”.

And the “growth of some human tumor xenografts” value (human tumor xenografts)?
Its value is “inhibited”.

And the angiogenesis (angiogenesis)?
Its angiogenesis is “inhibited”.

What about the “VEGF-induced VEGFR-2 phosphorylation” value (VEGFR-2 [13]; mouse lungs) of the same molecule?
Its value is “inhibited”.

With Cediranib as the molecule, how does the “growth of some human tumor xenografts” value (human tumor xenografts) read?
Its value is “inhibited”.

What about the angiogenesis (angiogenesis) of the same molecule?
Its angiogenesis is “inhibited”.

What about the “ligand-induced autophosphorylation of VEGFR-2” value (VEGFR-2 [14]) of the same molecule?
Its value is “inhibited”.

What about the “VEGF-induced VEGFR-2 phosphorylation” value (VEGFR-2 [13]; mouse) of the same molecule?
Its value is “inhibited”.
